Results on seven molecules are retold here after ChEMBL document CHEMBL5576077, “A small-molecule degron with a phenylpropionic acid scaffold” (Bioorg Med Chem, 2024).

Test [1] addresses T1, S-phase kinase-associated protein 2/Bifunctional ligase/repressor BirA (Homo sapiens) (UniProt P06709+Q13309). The experiment in a line: PROTAC activity at Skp2 in HeLa cells/N-terminal HaloTag7-fused TurboID (unknown origin) stably expressed in HeLa cells assessed as protein degradation at 30 uM incubated for 8 hrs by Western blot analysis. Type of test: cell-based. In general terms: A western blot detects proteins with antibodies after separation by electrophoresis.

The target in test [2] is T2, S-phase kinase-associated protein 2/Haloalkane dehalogenase (Homo sapiens) (UniProt Q13309+P0A3G3). The experiment in a line: PROTAC activity at Skp2 in HEK293 cells/HaloTag7 fusion protein (unknown origin) stably expressed in HEK293 cells assessed as protein degradation by measuring test to control ratio at 3 uM incubated for 24 hrs by Western blot analysis. Type of test: cell-based.

In test [3] the target is T2, S-phase kinase-associated protein 2/Haloalkane dehalogenase (Homo sapiens). The experiment in a line: PROTAC activity at Skp2 in HEK293 cells/HaloTag7 fusion protein (unknown origin) stably expressed in HEK293 cells assessed as protein degradation by measuring test to control ratio at 1 uM incubated for 24 hrs by Western blot analysis. Type of test: cell-based.
Test [4] shares this target. Description: PROTAC activity at Skp2 in HEK293 cells/HaloTag7 fusion protein (unknown origin) stably expressed in HEK293 cells assessed as protein degradation by measuring test to control ratio at 0.3 uM incubated for 24 hrs by Western blot analysis. Type of test: cell-based.
The target is the same in test [5]. Description: PROTAC activity at Skp2 in HEK293 cells/HaloTag7-ELuc fusion protein (unknown origin) stably expressed in HEK293 cells assessed as protein degradation at 1 to 10 uM incubated for 24 hrs by Western blot analysis. Type of test: cell-based. Particulars: dose 1-10 µM.
A short description of test [6]: Thermal stabilization of GST-fused HaloTag fusion protein (unknown origin) at 100 uM by SYPRO Orange dye based TSA assay.
The target in test [7] is T1, S-phase kinase-associated protein 2/Bifunctional ligase/repressor BirA (Homo sapiens). Description: PROTAC activity at Skp2 in HeLa cells/N-terminal HaloTag7-fused TurboID (unknown origin) stably expressed in HeLa cells assessed as protein degradation at 30 uM incubated for 3 to 8 hrs in presence of Epoxomicin by Western blot analysis. Particulars: time 3-8 hrs. Type of test: cell-based.

Test [8] has the same target. Description: PROTAC activity at Skp2 in HeLa cells/N-terminal HaloTag7-fused TurboID (unknown origin) stably expressed in HeLa cells assessed as protein degradation at 30 uM incubated for 3 to 8 hrs in presence of BafA by Western blot analysis. Type of test: cell-based. Particulars: time 3-8 hrs.
The target is the same in test [9]. Description: PROTAC activity at Skp2 in HeLa cells/N-terminal HaloTag7-fused TurboID (unknown origin) stably expressed in HeLa cells assessed as protein degradation at 30 uM incubated for 3 hrs by Western blot analysis. Type of test: cell-based.
Test [10] has the same target. The experiment in a line: PROTAC activity at Skp2 in HeLa cells/N-terminal HaloTag7-fused TurboID (unknown origin) stably expressed in HeLa cells assessed as protein degradation at 30 uM incubated for 8 hrs in presence of MLN4924 by Western blot analysis. Type of test: cell-based.
Test [11] has the same target. Description: PROTAC activity at Skp2 in HeLa cells/N-terminal HaloTag7-fused TurboID (unknown origin) stably expressed in HeLa cells assessed as protein degradation at 30 uM incubated for 3 to 8 hrs in presence of MG132 by Western blot analysis. Type of test: cell-based. Particulars: time 3-8 hrs.
Test [12] shares this target. Description: PROTAC activity at Skp2 in HeLa cells/N-terminal HaloTag7-fused TurboID (unknown origin) stably expressed in HeLa cells assessed as protein degradation at 30 uM incubated for 3 to 8 hrs in presence of NH4Cl by Western blot analysis. Type of test: cell-based. Particulars: time 3-8 hrs.

Active and inactive are the calls of the source. The calls are words filed in the database; no cut-off is given here.

As to `OCCOCCOCCOCCOCCCCCCCl`, in test [1], the result was inactive.
`O=C(O)CCc1ccc(OCCOCCOCCOCCCCCCCl)cc1/C=C1\SC(=S)N(Cc2cccnc2)C1=O`: in test [2], the T/C came to 81.
For `O=C(O)CCc1ccc(OCCOCCOCCOCCOCCOCCCCCCCl)cc1/C=C1\SC(=S)N(Cc2cccnc2)C1=O`, the T/C was 64 in [3], 82 in test [4] and 37 in [2].
In the case of `O=C(O)CCc1ccc(OCCCOCCCOCCCCCCCl)cc1/C=C1\SC(=S)N(Cc2cccnc2)C1=O`, the outcome in test [5] was Active.
Turning to `O=C(O)COc1ccc(O)cc1/C=C1\SC(=S)N(Cc2cccnc2)C1=O`, the result in [1] was inactive.
As to `O=C(O)CCc1ccc(OCCOCCOCCOCCOCCCCCCCl)cc1/C=C1\SC(=S)N(Cc2cccnc2)C1=O`, the outcome in test [6], in test [8], in [9], in test [10] and in [12] was Active. Further, the outcome in test [7] and in [11] was inactive. Moreover, the T/C in [2] is 25.
As to `O=C(O)COc1ccc(OCCOCCOCCOCCOCCOCCCCCCCl)cc1/C=C1\SC(=S)N(Cc2cccnc2)C1=O`, the T/C was found to be 121 in test [3], 111 in test [4] and 103 in test [2].
